Reference: the supplement of paper PMC10307832

How the values were obtained:
Experiment in all cases: relative viability (nuclei count vs DMSO), 5 days (fraction); higher = more cells survive
Pazopanib + Luminespib = compound: Cc1ccc(Nc2nccc(N(C)c3ccc4c(C)n(C)nc4c3)n2)cc1S(N)(=O)=O [Pazopanib] + CCNC(=O)c1noc(-c2cc(C(C)C)c(O)cc2O)c1-c1ccc(CN2CCOCC2)cc1 [Luminespib] (partner 0.01 µM)
How it was run: (§1)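 One day after seeding in 1536-well plates, lung cancer cell lines were dosed by pin tool. Dosing was either single-drug or a fixed anchor-drug dose plus five library-drug doses (not always all listed) in √10 steps. After 5 days, nuclei were stained in one fix-and-stain step and counted on 4× images, and relative viability is the nuclei count of treated wells over that of vehicle wells, given as the median of duplicate plates.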

Pazopanib + Dasatinib = compound: Cc1ccc(Nc2nccc(N(C)c3ccc4c(C)n(C)nc4c3)n2)cc1S(N)(=O)=O [Pazopanib] + Cc1nc(Nc2ncc(C(=O)Nc3c(C)cccc3Cl)s2)cc(N2CCN(CCO)CC2)n1 [Dasatinib] (partner 0.075 µM)
How it was run: as §1

Ponatinib + Lapatinib = compound: Cc1ccc(C(=O)Nc2ccc(CN3CCN(C)CC3)c(C(F)(F)F)c2)cc1C#Cc1cnc2cccnn12 [Ponatinib] + CS(=O)(=O)CCNCc1ccc(-c2ccc3ncnc(Nc4ccc(OCc5cccc(F)c5)c(Cl)c4)c3c2)o1 [Lapatinib] (partner 2 µM)
How it was run: as §1

Ponatinib + Navitoclax = compound: Cc1ccc(C(=O)Nc2ccc(CN3CCN(C)CC3)c(C(F)(F)F)c2)cc1C#Cc1cnc2cccnn12 [Ponatinib] + CC1(C)CCC(c2ccc(Cl)cc2)=C(CN2CCN(c3ccc(C(=O)NS(=O)(=O)c4ccc(N[C@H](CCN5CCOCC5)CSc5ccccc5)c(S(=O)(=O)C(F)(F)F)c4)cc3)CC2)C1 [Navitoclax] (partner 0.5 µM)
How it was run: as §1

Cell Line | relative viability (Pazopanib + Luminespib; first compound 0.01 µM) | relative viability (Pazopanib + Luminespib; first compound 0.03162 µM) | relative viability (Pazopanib + Luminespib; first compound 0.1 µM) | relative viability (Pazopanib + Luminespib; first compound 0.3162 µM) | relative viability (Pazopanib + Luminespib; first compound 1 µM) | relative viability (Pazopanib + Dasatinib; first compound 0.01 µM) | relative viability (Pazopanib + Dasatinib; first compound 0.03162 µM) | relative viability (Pazopanib + Dasatinib; first compound 0.1 µM) | relative viability (Pazopanib + Dasatinib; first compound 0.3162 µM) | relative viability (Pazopanib + Dasatinib; first compound 1 µM) | relative viability (Ponatinib + Lapatinib; first compound 0.002 µM) | relative viability (Ponatinib + Lapatinib; first compound 0.006325 µM) | relative viability (Ponatinib + Lapatinib; first compound 0.06325 µM) | relative viability (Ponatinib + Lapatinib; first compound 0.2 µM) | relative viability (Ponatinib + Navitoclax; first compound 0.002 µM) | relative viability (Ponatinib + Navitoclax; first compound 0.006325 µM) | relative viability (Ponatinib + Navitoclax; first compound 0.06325 µM) | relative viability (Ponatinib + Navitoclax; first compound 0.2 µM)
LXF-289 | 0.74 | 0.713 | 0.69 | 0.67 | 0.729 | 0.224 | 0.236 | 0.19 | 0.156 | 0.242 | 0.855 | 0.895 | 0.894 | 0.859 | 0.862 | 0.957 | 0.935 | 0.971
PC-3 [JPC-3] | 0.784 | 0.59 | 0.65 | 0.69 | 0.65 | 0.991 | 0.939 | 1.11 | 0.939 | 0.983 | 0.43 | 0.45 | 0.492 | 0.502 | 0.792 | 0.754 | 0.902 | 0.748
NCI-H1666 | 1.03 | 1.08 | 0.99 | 1.06 | 1.06 | 0.854 | 0.833 | 0.801 | 0.864 | 0.772 | 0.619 | 0.666 | 0.796 | 0.773 | 0.94 | 1.15 | 1.18 | 0.979
NCI-H2085 | 0.461 | 0.41 | 0.5 | 0.434 | 0.425 | 0.219 | 0.255 | 0.225 | 0.241 | 0.265 | 0.733 | 0.815 | 0.843 | 0.879 | 1.1 | 1.16 | 1.28 | 1.16
